The record followed here is ChEMBL document CHEMBL1759834, “Synthesis, stereochemistry, antimicrobial evaluation and QSAR studies of 2,6-diaryltetrahydropyran-4-one thiosemicarbazones” (2011).

The subject of experiment [1] is Salmonella typhi. In words: Antibacterial activity against Salmonella typhi ATCC 24915 after 24 hrs by twofold serial dilution method. In kind it is functional, Salmonella enterica subsp. enterica serovar Typhi. To be noted: for MIC: Salmonella enterica, ATCC 24915, 24 h.
Experiment [2] relates to Cryptococcus neoformans. In words: Antifungal activity against Cryptococcus neoformans after 72 to 96 hrs by twofold serial dilution method. Type of experiment: functional. Conditions: for MIC: Cryptococcus neoformans.
For experiment [3], the system named is Staphylococcus aureus. In words: Antibacterial activity against Staphylococcus aureus ATCC 25825 after 24 hrs by twofold serial dilution method. Conditions: for MIC: Staphylococcus aureus, ATCC 25825, 24 h. Type of experiment: functional.
The test system of experiment [4] is Klebsiella pneumoniae. In words: Antibacterial activity against Klebsiella pneumoniae ATCC 15490 after 24 hrs by twofold serial dilution method. In kind it is functional. To be noted: for MIC: Klebsiella pneumoniae, ATCC 15490, 24 h.
Experiment [5] concerns Bacillus subtilis. In words: Antibacterial activity against Bacillus subtilis ATCC 451 after 24 hrs by twofold serial dilution method. Type of experiment: functional. To be noted: for MIC: Bacillus subtilis, ATCC 451, 24 h.
The test system of experiment [6] is Escherichia coli. In words: Antibacterial activity against Escherichia coli ATCC 25835 after 24 hrs by twofold serial dilution method. Type of experiment: functional. Conditions: for MIC: Escherichia coli, ATCC 25835, 24 h.
Experiment [7] has as its system Pseudomonas aeruginosa. In words: Antibacterial activity against Pseudomonas aeruginosa ATCC 10145 after 24 hrs by twofold serial dilution method. In kind it is functional. Conditions: for MIC: Pseudomonas aeruginosa, ATCC 10145, 24 h.
Experiment [8] relates to Candida albicans. In words: Antifungal activity against Candida albicans after 24 hrs by twofold serial dilution method. Type of experiment: functional. To be noted: for MIC: Candida albicans, 24 h.
The subject of experiment [9] is Aspergillus niger. In words: Antifungal activity against Aspergillus niger after 72 to 96 hrs by twofold serial dilution method. Type of experiment: functional. Conditions: for MIC: Aspergillus niger.

≈ marks a conversion by molar mass, not a printed value.

Turning to `C[C@@H]1/C(=N\NC(=S)Nc2ccccc2)[C@@H](C)[C@H](c2ccc(Cl)cc2)O[C@@H]1c1ccc(Cl)cc1`, the MIC (commonly the smallest concentration in the dilution series that meets the test's criterion for growth inhibition) in experiment [1] turned out to be 25 µg/mL (≈ 50.2 µM); in [2] it was 6.25 µg/mL (≈ 12.5 µM); in [3], 25 µg/mL (≈ 50.2 µM); in experiment [4] it was 12.5 µg/mL (≈ 25.1 µM); in experiment [5] it was 25 µg/mL (≈ 50.2 µM); in experiment [6], 100 µg/mL (≈ 201 µM). Further, the MIC was 6.25 µg/mL (≈ 12.5 µM) in experiment [7], 12.5 µg/mL (≈ 25.1 µM) in [8] and 50 µg/mL (≈ 100 µM) in [9]. For the same compound, the “-logMIC” value is on record as 5.204 in [2]; 4.602 in experiment [3]; 4.903 in experiment [4]; 4.602 in experiment [5]; 4 in [6]; 5.204 in [7]. Also, the “-logMIC” value came to 4.903 in experiment [8] and 4.301 in [9].
`C[C@@H]1/C(=N\NC(=S)Nc2ccccc2)[C@@H](C)[C@H](c2ccc(Br)cc2)O[C@@H]1c1ccc(Br)cc1`: the minimal inhibitory concentration (MIC) came to 12.5 µg/mL (≈ 21.3 µM) in experiment [1]; 12.5 µg/mL (≈ 21.3 µM) in experiment [2]; 25 µg/mL (≈ 42.6 µM) in experiment [3]; 25 µg/mL (≈ 42.6 µM) in [4]; 25 µg/mL (≈ 42.6 µM) in experiment [5]; 100 µg/mL (≈ 170 µM) in experiment [6]. Also, the MIC is 6.25 µg/mL (≈ 10.6 µM) in experiment [7], 6.25 µg/mL (≈ 10.6 µM) in experiment [8] and 25 µg/mL (≈ 42.6 µM) in [9]. Besides, the “-logMIC” value came out at 4.903 in experiment [2]; 4.602 in experiment [3]; 4.602 in experiment [4]; 4.602 in experiment [5]; 4 in experiment [6]; 5.204 in experiment [7]. Moreover, the entries for the “-logMIC” value in experiment [8] and in experiment [9] were 5.204 and 4.602, respectively.
In the case of `COc1ccc([C@H]2O[C@@H](c3ccc(OC)cc3)[C@H](C)/C(=N/NC(=S)Nc3ccccc3)[C@H]2C)cc1`, the “-logMIC” value turned out to be 4 in experiment [1]; 3.698 in experiment [2]; 4.903 in experiment [3]; 4.602 in experiment [4]; 4.903 in experiment [5]; 4.602 in experiment [6]. Besides, the “-logMIC” value in experiment [7] was 4.602; in experiment [8], 5.204; in experiment [9], 4.602. In addition, the MIC in experiment [1] was 100 µg/mL (≈ 204 µM); in experiment [2] it was 200 µg/mL (≈ 408 µM); in [3], 12.5 µg/mL (≈ 25.5 µM); in [4], 25 µg/mL (≈ 51.1 µM); in [5] it was 12.5 µg/mL (≈ 25.5 µM); in experiment [6], 25 µg/mL (≈ 51.1 µM). Further, the MIC was found to be 25 µg/mL (≈ 51.1 µM) in experiment [7], 6.25 µg/mL (≈ 12.8 µM) in experiment [8] and 25 µg/mL (≈ 51.1 µM) in experiment [9].
For the compound `C[C@@H]1/C(=N\NC(=S)Nc2ccccc2)[C@@H](C)[C@H](c2ccccc2Cl)O[C@@H]1c1ccccc1Cl`, the MIC in experiment [1] was found to be 25 µg/mL (≈ 50.2 µM); in [2], 25 µg/mL (≈ 50.2 µM); in experiment [3] it was 50 µg/mL (≈ 100 µM); in experiment [4], 12.5 µg/mL (≈ 25.1 µM); in [5], 50 µg/mL (≈ 100 µM); in experiment [6] it was 25 µg/mL (≈ 50.2 µM). The results for the MIC in experiment [7], in experiment [8] and in [9] were 50 µg/mL (≈ 100 µM), 50 µg/mL (≈ 100 µM) and 200 µg/mL (≈ 401 µM), respectively. The “-logMIC” value is on record as 4.602 in experiment [2]; 4.301 in [3]; 4.903 in experiment [4]; 4.301 in experiment [5]; 4.602 in experiment [6]; 4.301 in experiment [7]. Also, the “-logMIC” value in experiment [8] stood at 4.301; in experiment [9] it was 3.698.
For the compound `C[C@@H]1/C(=N\NC(=S)Nc2ccccc2)[C@@H](C)[C@H](c2cccc(Cl)c2)O[C@@H]1c1cccc(Cl)c1`, the MIC in experiment [1] turned out to be 12.5 µg/mL (≈ 25.1 µM); in [2], 25 µg/mL (≈ 50.2 µM); in experiment [3] it was 50 µg/mL (≈ 100 µM); in [4], 12.5 µg/mL (≈ 25.1 µM); in experiment [5] it was 25 µg/mL (≈ 50.2 µM); in [6], 100 µg/mL (≈ 201 µM). Moreover, the MIC in experiment [7] worked out at 25 µg/mL (≈ 50.2 µM); in experiment [8], 25 µg/mL (≈ 50.2 µM); in experiment [9], 100 µg/mL (≈ 201 µM). Also, the “-logMIC” value was 4.602 in [2]; 4.301 in experiment [3]; 4.903 in experiment [4]; 4.602 in experiment [5]; 4 in experiment [6]; 4.602 in [7]. Also, the “-logMIC” value came to 4.602 in experiment [8] and 4 in experiment [9].
In the case of `COc1cccc([C@H]2O[C@@H](c3cccc(OC)c3)[C@H](C)/C(=N/NC(=S)Nc3ccccc3)[C@H]2C)c1`, the MIC was 50 µg/mL (≈ 102 µM) in experiment [1]; 100 µg/mL (≈ 204 µM) in experiment [2]; 12.5 µg/mL (≈ 25.5 µM) in experiment [3]; 100 µg/mL (≈ 204 µM) in [4]; 12.5 µg/mL (≈ 25.5 µM) in experiment [5]; 50 µg/mL (≈ 102 µM) in experiment [6]. Also, the MIC in [7] worked out at 200 µg/mL (≈ 408 µM); in experiment [8], 25 µg/mL (≈ 51.1 µM); in [9], 100 µg/mL (≈ 204 µM). For the same compound, the “-logMIC” value in experiment [2] was determined as 4; in [3] it was 4.903; in [4] it was 4; in experiment [5], 4.903; in experiment [6], 4.301; in [7], 3.698. Moreover, the figures for the “-logMIC” value in experiment [8] and in [9] were 4.602 and 4, respectively.
